Data from BindingDB's records for doi:10.7270/Q2W37TT2 (Johns Hopkins Ion Channel Center, 2011).

Target: Potassium voltage-gated channel subfamily KQT member 2 (Rattus norvegicus, UniProt O88943)
Assay: blockers of KCNQ2 channel current – cell-based, automated electrophysiology, set II, rat KCNQ2, dose response (AID 588637)

Chain of Potassium voltage-gated channel subfamily KQT member 2 (O88943 whole entry): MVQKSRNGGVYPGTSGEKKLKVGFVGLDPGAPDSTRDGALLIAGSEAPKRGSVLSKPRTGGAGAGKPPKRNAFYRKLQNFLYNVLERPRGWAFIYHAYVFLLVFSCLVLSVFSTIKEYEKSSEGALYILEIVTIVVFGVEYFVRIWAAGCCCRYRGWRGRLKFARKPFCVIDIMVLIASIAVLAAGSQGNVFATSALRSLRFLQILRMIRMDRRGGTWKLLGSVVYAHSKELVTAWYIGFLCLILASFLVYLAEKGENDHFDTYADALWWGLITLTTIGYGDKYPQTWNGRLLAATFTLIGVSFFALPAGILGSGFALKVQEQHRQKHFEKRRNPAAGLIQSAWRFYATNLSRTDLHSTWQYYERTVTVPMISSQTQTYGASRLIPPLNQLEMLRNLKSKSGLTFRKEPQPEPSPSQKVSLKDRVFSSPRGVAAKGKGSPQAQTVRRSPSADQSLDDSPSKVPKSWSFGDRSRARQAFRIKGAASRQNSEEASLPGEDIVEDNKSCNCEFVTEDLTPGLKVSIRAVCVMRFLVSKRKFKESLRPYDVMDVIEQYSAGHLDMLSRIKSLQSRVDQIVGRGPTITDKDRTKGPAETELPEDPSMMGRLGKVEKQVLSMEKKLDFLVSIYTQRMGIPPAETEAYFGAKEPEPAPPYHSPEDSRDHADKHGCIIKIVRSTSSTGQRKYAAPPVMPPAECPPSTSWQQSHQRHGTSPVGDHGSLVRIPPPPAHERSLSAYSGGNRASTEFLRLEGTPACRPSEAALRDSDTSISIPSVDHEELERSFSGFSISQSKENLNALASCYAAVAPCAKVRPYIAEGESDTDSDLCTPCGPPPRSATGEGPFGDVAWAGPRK

SMILES	IC50 [µM]
COc1ccc(-[n+]2c(-c3ccccc3)cc(-c3ccc(C)cc3)cc2-c2ccccc2)cc1	11.1
CC(N=Nc1nc(N2CCCCCC2)nc(N2CCCCCC2)n1)c1ccccc1 (configuration not stated) [(1E)-1-phenylethanone (4,6-diazepan-1-yl-1,3,5-triazin-2-yl)hydrazone]	1.62
